Experimental data: paper PMC4886168, “Effects of solid‐phase extraction of plasma in measuring gut metabolic hormones in fasted and fed blood of lean and diet‐induced obese rats” (Physiological Reports, 2016)
Values joined by “and” are separate entries in the source; they are usually repeats but may differ in a detail not shown here. Equal values may be shown once.

B1: Leptin (protein, UniProt P41160 22-167, looked up)
Leptin: VPIQKVQDDTKTLIKTIVTRINDISHTQSVSAKQRVTGLDFIPGLHPILSLSKMDQTLAVYQQVLTSLPSQNVLQIANDLENLRDLLHLLAFSKSCSLPQTSGLQKPESLDGVLEASLYSTEVVALSRLQGSLQDILQQLDVSPEC

Tests used:
[1] = rats, amylin 15 ng/kg/min IV; solid-phase extraction of plasma, amylin radioimmunoassay; ref Arnelo et al. 1998; cited from earlier work
Text: With respect to the pancreatic hormone amylin, we previously provided evidence that postprandial plasma levels of amylin are not quite sufficient to inhibit food intake in rats by an endocrine mechanism (Arnelo et al. 1998). […] Here, we provide evidence using solid‐phase extraction of plasma and the multiplex assay for active amylin that a large chow meal in ...

[2] = Plasma peptide levels during IV infusion of anorexigenic doses in lean rats
Procedure: Leptin doses bracketed the minimal effective dose (1100 ng/kg/min) for reducing food intake in lean rats (Reidelberger et al. 2012). Approximately 45 min after infusion onset, and while the infusion continued, rats were anesthetized with isoflurane (3%), and blood samples (~3 mL) were obtained by cardiac puncture. Samples were immediately transferred to 4 mL EDTA tubes on ice containing 40 μL of a mixture of 0.9 mL DPP4 inhibitor, 0.1 mL Protease Inhibitor Cocktail, and 0.1 g AEBSF. Plasma was obtained by centrifugation within 30 min of sample collection and stored at −70°C until solid‐phase extraction of samples followed by the multiplex assay. Infusions were administered using a syringe infusion pump (Harvard Apparatus, South Natick, MA). At the end of the experiment, data from a rat were excluded if its jugular vein catheter was not patent. A catheter was deemed patent if the rat lost consciousness within 10 sec of a bolus injection of the short‐acting anesthetic brevital into the catheter.
Plasma samples were extracted using procedures similar to those described previously (Dai et al. 2008). Briefly, an OASIS HLB LP (60 mg) 96‐well extraction plate (Waters Corp., Milford, MA) was prepared by passing 1 mL acetonitrile twice through each well, followed by 3, 1 mL washes of 1% trifluoroacetic acid (TFA; 1:100 water [vol/vol]). Flows through the wells were facilitated using a Waters vacuum manifold (5 inch Hg). Plasma (1 mL) was then added to each well; 10 min later, flows were facilitated using vacuum. Wells were then washed three times with 1 mL 1% TFA (facilitated using vacuum). Extracts were eluted into individual tubes by adding 1 mL of 1% TFA, 60% acetonitrile in water (vol/vol) to each well; 10 min later, flows were facilitated using vacuum. Samples of each extract (0.9 mL) were frozen, and then lyophilized to dryness. At time of assay, dried extracts for each sample were dissolved with 0.45 mL of assay buffer, producing a twofold higher concentration for eluted plasma components.
The multiplex assay employed a BioTek ELx405 plate washer fitted with a magnetic holder, and a Luminex 200 analyzer. […] Initial assays compared peptide standards used in the multiplex assay with those used in the individual ELIAs: multiplex assay standards were included in the individual ELIAs, and standards from the ELIAs were included in the multiplex assay.
In experiments examining the effects of solid‐phase extraction of plasma samples on specific recoveries of the seven peptides added to lean and obese plasma, measured peptide concentrations in each plasma sample were plotted against expected concentrations (after subtracting plasma alone values), and linear regression analyses were performed. […] Planned comparisons of treatment means were evaluated by t‐tests or paired t‐tests. […]

[3] = test system: food intake in lean rats; settings: cited from earlier work; for ED50 dose for reducing food intake: 3-h IV infusion, ref Reidelberger et al. 2001, Chelikani et al. 2005a,b

| predicted plasma active amylin level at minimal anorexigenic dose ([2]; rat, in vivo, iv) | Molecule | plasma amylin produced by anorexigenic IV dose [1] [pg/mL] | ED50 dose for reducing food intake ([3]; lean rats) [ng/kg/min] | best-fit linear regression equation, Y plasma peptide concentration (pg/mL), X peptide dose (ng/kg/min) ([2]; lean rats, 45 min IV infusion, three dose levels incl. 0, extracted plasma, multiplex assay, multiplex standards as reference) | plasma level at ~ED50 dose relative to that produced by the large meal ([2]; lean rats, IV ~ED50 doses (56, 68, 39 ng/kg/min) vs postprandial level 30 min after meal onset, ELIA standards as reference) | predicted plasma active GLP-1 level at minimal anorexigenic dose ([2]; regression prediction for GLP-1 1.6 ng/kg/min IV, dose not administered here, [95% CI]) | effect on food intake ([3]; rats, IV infusion of GLP-1 at 33 ng/kg/min, ref Chelikani et al. 2005b) | minimal effective dose for reducing food intake ([3]; lean rats, IV infusion of leptin, ref Reidelberger et al. 2012) [ng/kg/min] |
| --- | --- | --- | --- | --- | --- | --- | --- | --- |
| 450 [−460, 1360] pg/mL | CC(C)C[C@H](NC(=O)[C@H](CC(N)=O)NC(=O)[C@H](CC(N)=O)NC(=O)[C@H](CO)NC(=O)[C@H](CO)NC(=O)[C@H](CCCNC(=N)N)NC(=O)[C@@H](NC(=O)[C@H](CC(C)C)NC(=O)[C@H](Cc1ccccc1)NC(=O)[C@H](CC(N)=O)NC(=O)[C@H](C)NC(=O)[C@H](CC(C)C)NC(=O)[C@H](CCCNC(=N)N)NC(=O)[C@H](CCC(N)=O)NC(=O)[C@@H](NC(=O)[C@H](C)NC(=O)[C@@H]1CSSC[C@H](NC(=O)[C@@H](N)CCCCN)C(=O)N[C@@H](CC(N)=O)C(=O)N[C@@H]([C@@H](C)O)C(=O)N[C@@H](C)C(=O)N[C@@H]([C@@H](C)O)C(=O)N1)[C@@H](C)O)C(C)C)C(=O)NCC(=O)N1CCC[C@H]1C(=O)N[C@H](C(=O)N[C@@H](CC(C)C)C(=O)N1CCC[C@H]1C(=O)N1CCC[C@H]1C(=O)N[C@H](C(=O)N[C@@H](CC(N)=O)C(=O)N[C@H](C(=O)NCC(=O)N[C@@H](CO)C(=O)N[C@@H](CC(N)=O)C(=O)N[C@H](C(=O)N[C@@H](Cc1ccc(O)cc1)C(N)=O)[C@@H](C)O)C(C)C)[C@@H](C)O)C(C)C [Amylin] | 140 | 31 | – | – | – | – | – |
| – | CC[C@H](C)[C@H](NC(=O)[C@H](Cc1ccccc1)NC(=O)[C@H](CCC(=O)O)NC(=O)[C@H](CCCCN)NC(=O)[C@H](C)NC(=O)[C@H](C)NC(=O)[C@H](CCC(N)=O)NC(=O)CNC(=O)[C@H](CCC(=O)O)NC(=O)[C@H](CC(C)C)NC(=O)[C@H](Cc1ccc(O)cc1)NC(=O)[C@H](CO)NC(=O)[C@H](CO)NC(=O)[C@@H](NC(=O)[C@H](CC(=O)O)NC(=O)[C@H](CO)NC(=O)[C@@H](NC(=O)[C@H](Cc1ccccc1)NC(=O)[C@@H](NC(=O)CNC(=O)[C@H](CCC(=O)O)NC(=O)[C@H](C)NC(=O)[C@@H](N)Cc1c[nH]cn1)[C@@H](C)O)[C@@H](C)O)C(C)C)C(=O)N[C@@H](C)C(=O)N[C@@H](Cc1c[nH]c2ccccc12)C(=O)N[C@@H](CC(C)C)C(=O)N[C@H](C(=O)N[C@@H](CCCCN)C(=O)NCC(=O)N[C@@H](CCCNC(=N)N)C(N)=O)C(C)C [GLP‐1, Glucagon‐like peptide‐1] | – | 76 | 37 + 75X pg/mL | 30–60 fold and 30 fold | 53 [−400, 510] pg/mL | sufficient to decrease food intake | – |
| – | B1 | – | – | – | – | – | – | 1100 |
